Experimental data published in ChEMBL document CHEMBL3108719, “Synthesis and in Vitro Evaluation of a Peptidomimetic Inhibitor Targeting the Src Homology 2 (SH2) Domain of STAT6” (ACS Med Chem Lett, 2014).
Active and inactive are the calls of the source. No cut-off for these calls is given here.

Columns and labels:
Format in all cases: cell-based
[1] = target: T1, Signal transducer and activator of transcription 6 (Homo sapiens) (UniProt P42226); experiment: Inhibition of IL4-stimulated SH2 domain of STAT6 phosphorylation at Tyr641 in human BEAS2B cells at 1 to 10 uM incubated for 2 to 48 hrs prior to IL-4 challenge measured after 1 hr by Western blotting analysis
T1 sequence (whole entry): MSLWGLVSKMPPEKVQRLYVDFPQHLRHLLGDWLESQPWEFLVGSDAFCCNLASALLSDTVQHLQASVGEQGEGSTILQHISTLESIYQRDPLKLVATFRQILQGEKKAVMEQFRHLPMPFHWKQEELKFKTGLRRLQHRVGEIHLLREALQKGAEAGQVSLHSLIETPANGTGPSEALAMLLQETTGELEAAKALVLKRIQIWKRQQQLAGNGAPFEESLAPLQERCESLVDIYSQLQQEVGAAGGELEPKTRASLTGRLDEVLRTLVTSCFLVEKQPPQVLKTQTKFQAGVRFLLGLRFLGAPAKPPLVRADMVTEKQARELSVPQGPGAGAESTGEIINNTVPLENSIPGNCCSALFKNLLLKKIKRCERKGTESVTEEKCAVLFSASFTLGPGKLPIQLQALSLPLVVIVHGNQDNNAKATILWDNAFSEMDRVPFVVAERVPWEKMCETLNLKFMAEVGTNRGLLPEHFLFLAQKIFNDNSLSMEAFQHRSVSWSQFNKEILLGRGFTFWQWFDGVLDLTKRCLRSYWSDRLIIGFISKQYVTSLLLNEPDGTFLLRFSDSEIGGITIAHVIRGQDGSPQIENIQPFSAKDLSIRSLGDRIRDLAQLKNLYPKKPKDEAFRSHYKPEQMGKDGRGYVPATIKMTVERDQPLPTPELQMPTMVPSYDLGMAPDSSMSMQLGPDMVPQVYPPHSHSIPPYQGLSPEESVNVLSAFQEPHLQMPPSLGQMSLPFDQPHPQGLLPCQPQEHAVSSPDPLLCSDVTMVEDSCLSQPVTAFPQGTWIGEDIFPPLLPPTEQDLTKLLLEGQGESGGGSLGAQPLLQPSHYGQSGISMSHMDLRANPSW

[2] = Cytotoxicity against human BEAS2B cells up to 10 uM after 72 hrs by MTS assay; conditions: beas-2b
[3] = target: T1, Signal transducer and activator of transcription 6 (Homo sapiens); experiment: Inhibition of IL13-stimulated SH2 domain of STAT6 phosphorylation at Tyr641 in human BEAS2B cells at 1 to 10 uM incubated for 2 hrs prior to IL-13 challenge measured after 1 hr by Western blotting analysis
[4] = target: T1, Signal transducer and activator of transcription 6 (Homo sapiens); experiment: Inhibition of IL4-stimulated SH2 domain of STAT6 phosphorylation at Tyr641 in human BEAS2B cells at 1 to 10 uM incubated for 2 hrs prior to IL-4 challenge measured after 1 hr by Western blotting analysis

- inhibition [1]: Active
- inhibition [3]: Active
- inhibition [4]: Active
SMILES: CC(C)(C)C(=O)OCOP(=O)(OCOC(=O)C(C)(C)C)C(F)(F)c1ccc(/C=C/C(=O)N[C@H](C(=O)N2CCC[C@H]2C(=O)N(c2ccccc2)c2ccc(I)cc2)C(C)(C)C)cc1
- Activity [2]: Non-toxic
